The text below walks through data of patent US7008630B2, “Lipochroman-6 as NO-synthase inhibitor and uses” (L' Oreal, priority 2000, dated 2006).

As a reminder, the % inhibition is the share of the control response that was lost under treatment.

In this test the target is T1, inducible NO-synthase (NO-synthase 2) (Homo sapiens, UniProt P35228).
T1 construct: positive control (induction of the enzyme): mixtures of γ-interferon (1 000 U/ml) and interleukin-1β (100 U/ml); endogenous in cells
As to the kind of experiment: Activity on inducible NO-synthase: decrease in nitrate and nitrite concentration after stimulation of NO-synthase 2 (test of Heck et al.). The conditions noted are these: for % inhibition: induction with γ-interferon 1 000 U/ml and interleukin-1β 100 U/ml, nitrites and nitrates measured. It counts as cell-based. The method, then: The activity of lipochroman-6 on inducible NO-synthase was evaluated in the test described by Heck et al. (J. B. C., Vol. 267, No. 30, 21277–21280, Oct. 25, 1992).
In order to determine the activity of the product to be tested, the amount of stable NO reaction products (nitrites and nitrates) is measured using the nitric calorimetric assay kit sold by the company Boehringer under the reference 1756.28.
The lipochroman-6 was tested at the concentrations of 0.005% and 0.01% (weight/volume) in ethanol.

T1 sequence (P35228 whole entry, species assumed): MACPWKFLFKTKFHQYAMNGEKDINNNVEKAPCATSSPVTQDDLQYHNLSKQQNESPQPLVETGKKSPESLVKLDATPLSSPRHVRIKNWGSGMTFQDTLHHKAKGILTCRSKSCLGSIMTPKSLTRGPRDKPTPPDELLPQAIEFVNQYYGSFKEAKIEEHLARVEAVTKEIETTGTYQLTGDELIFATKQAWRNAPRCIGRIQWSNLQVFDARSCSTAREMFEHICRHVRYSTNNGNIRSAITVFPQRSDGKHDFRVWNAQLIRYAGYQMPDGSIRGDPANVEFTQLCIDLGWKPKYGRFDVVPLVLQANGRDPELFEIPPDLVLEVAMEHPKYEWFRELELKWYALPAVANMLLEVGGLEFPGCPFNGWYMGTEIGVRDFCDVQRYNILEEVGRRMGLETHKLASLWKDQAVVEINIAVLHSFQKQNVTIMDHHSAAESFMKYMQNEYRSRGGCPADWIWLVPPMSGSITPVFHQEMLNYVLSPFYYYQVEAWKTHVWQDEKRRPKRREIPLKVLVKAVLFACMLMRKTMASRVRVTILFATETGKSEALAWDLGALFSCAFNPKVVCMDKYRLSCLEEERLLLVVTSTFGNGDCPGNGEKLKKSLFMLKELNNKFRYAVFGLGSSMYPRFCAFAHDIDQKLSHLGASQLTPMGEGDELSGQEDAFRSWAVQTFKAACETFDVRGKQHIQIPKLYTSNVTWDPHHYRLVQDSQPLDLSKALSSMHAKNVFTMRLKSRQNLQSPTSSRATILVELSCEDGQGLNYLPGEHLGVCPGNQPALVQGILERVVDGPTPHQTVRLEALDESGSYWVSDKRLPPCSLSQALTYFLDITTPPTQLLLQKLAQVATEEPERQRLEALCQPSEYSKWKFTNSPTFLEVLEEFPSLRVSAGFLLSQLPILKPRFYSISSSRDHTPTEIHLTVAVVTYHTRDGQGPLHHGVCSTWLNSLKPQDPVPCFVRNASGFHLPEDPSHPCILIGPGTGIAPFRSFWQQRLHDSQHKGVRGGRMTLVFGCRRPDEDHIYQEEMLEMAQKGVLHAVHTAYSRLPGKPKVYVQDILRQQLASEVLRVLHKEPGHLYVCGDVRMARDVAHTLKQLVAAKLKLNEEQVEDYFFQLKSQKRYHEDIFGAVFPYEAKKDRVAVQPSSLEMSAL

Regarding `COc1cc2c(cc1O)CCC(C)(C)O2` [Lipochroman-6, lipochroman-6], the “effect on inducible NO-synthase (in words)” value is listed as “inhibitory effect”. Where the note is “lipochroman-6 at 0.005% (weight/volume) in ethanol”, the “% inhibition” value was 38%. The “% inhibition” value (lipochroman-6 at 0.01% (weight/volume) in ethanol) is 95%.
